Laboratory results: patent publication US11214803B2, “Modulators of YAP1 expression” (Ionis Pharmaceuticals, Inc., priority 2019, dated 2022)
Strand notation (5' to 3'): a small letter for the sugar, then the base; units joined by * are phosphorothioate-linked, units joined directly phosphodiester-linked; [ ] holds rarer units or linkages, { } end groups; capitals alone tell only the bases. k = constrained ethyl (cEt); [5mC] = 5-methylcytosine; d = 2'-deoxy (DNA)

System: Yap1 mRNA
Test: Antisense inhibition of human Yap1 in A-431 cells by cEt gapmers, single dose (Example 3, RTS36584)
Format: cell-based
Details: Table 9; A-431 cells, 5,000 cells per well, free uptake, 2,000 nM, approximately 48 hours; RTS36584; normalized to RIBOGREEN; Yap1 mRNA relative to untreated control cells
Method in brief: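 A-431 cells were treated by free uptake with 2,000 nM modified oligonucleotide (3-10-3 cEt gapmers, full phosphorothioate, 5-methylcytosines) for about 48 hours. Yap1 mRNA was quantified by real-time RT-PCR, normalized to RiboGreen total RNA, and expressed as % of untreated control; asterisked values mark oligonucleotides targeting the amplicon region.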

Row | Substance | YAP1 (% UTC)
1 | 958451 (antisense k[5mC]*kA*k[5mC]*dG*dA*dT*d[5mC]*dT*dG*dA*dT*dG*d[5mC]*k[5mC]*k[5mC]*kG) [Compound 958451] | 10
2 | 958816 (kG*kT*kG*dA*dT*dA*dA*d[5mC]*dA*dT*dA*dT*d[5mC]*k[5mC]*k[5mC]*kA; antisense) [Compound 958816] | 71
3 | 958561 (kA*k[5mC]*kA*d[5mC]*dA*dG*dA*dG*dG*dT*dG*d[5mC]*dT*kA*kG*k[5mC]; antisense) [Compound 958561] | 48

Same assay, conditions: Table 10; A-431 cells, 5,000 cells per well, free uptake, 2,000 nM oligonucleotide, approx. 48 hours; primer probe set RTS36584; Yap1 mRNA normalized to RIBOGREEN, percent of untreated control

Row | Substance | YAP1 (% UTC)
4 | 958717 (antisense kA*kA*kT*dA*dA*dT*dA*dT*dA*dG*d[5mC]*dT*dT*kA*k[5mC]*kG) [Compound 958717] | 11
5 | 958592 (k[5mC]*kG*kT*dA*dA*dG*dA*dT*d[5mC]*dA*dA*dA*dG*k[5mC]*kA*k[5mC]; antisense) [Compound 958592] | 12
6 | 958442 (antisense kG*kG*kA*dG*dA*dA*dG*d[5mC]*dG*dG*d[5mC]*dG*dA*k[5mC]*kG*kG) [Compound 958442] | 21
7 | 958637 (antisense k[5mC]*k[5mC]*kG*d[5mC]*dA*dG*dA*dG*dA*dG*dA*dA*dA*k[5mC]*kT*k[5mC]) [Compound 958637] | 101
8 | 958542 (kT*kA*kT*dA*dG*dT*dA*dT*dT*d[5mC]*dT*dA*dT*k[5mC]*k[5mC]*kA; antisense) [Compound 958542] | 4
9 | 958702 (antisense kT*kG*kA*dT*dG*dT*d[5mC]*dT*dT*dG*dT*d[5mC]*d[5mC]*kA*kG*kA) [Compound 958702] | 16
10 | 958777 (antisense kG*kT*kA*dA*d[5mC]*dT*dG*dT*dT*dT*d[5mC]*dT*dA*kG*kG*kT) [Compound 958777] | 10

Same assay, conditions: Table 11; A-431 cells, 5,000 cells per well, free uptake, 2,000 nM oligonucleotide, approx. 48 hours; primer probe set RTS36584; Yap1 mRNA normalized to RIBOGREEN, percent of untreated control

Row | Substance | YAP1 (% UTC)
11 | 958718 (antisense kG*kA*kA*d[5mC]*dA*d[5mC]*dT*dA*dT*dA*dG*d[5mC]*dT*kT*kG*kG) [Compound 958718] | 4
12 | 958688 (antisense kG*kG*k[5mC]*dT*dA*dT*dG*dT*dA*dG*d[5mC]*d[5mC]*dT*kT*k[5mC]*k[5mC]) [Compound 958688] | 82
13 | 958448 (antisense kG*k[5mC]*kG*dA*dA*dG*dG*d[5mC]*dG*dG*d[5mC]*dT*dG*k[5mC]*k[5mC]*k[5mC]) [Compound 958448] | 86
14 | 958743 (antisense kG*kA*k[5mC]*dT*dA*dT*dA*dA*dA*dG*dG*dG*dT*kT*kT*kA) [Compound 958743] | 30

Same assay, conditions: Table 12; A-431 cells, 5,000 cells per well, free uptake, 2,000 nM modified oligonucleotide, approx. 48 hours; RTS36584; normalized to RIBOGREEN; Yap1 mRNA relative to untreated control cells

Row | Substance | YAP1 (% UTC)
15 | 958639 (antisense kG*kT*kT*dA*dT*dG*dG*dG*dT*dG*d[5mC]*dT*dT*kT*kT*k[5mC]) [Compound 958639] | 18
16 | 958479 (antisense kA*kT*kG*dG*dA*dA*dA*dT*dT*dT*d[5mC]*d[5mC]*dG*kG*kT*kG) [Compound 958479] | 15

Same assay, conditions: Table 13; A-431 cells, 5,000 cells per well, free uptake, 2,000 nM modified oligonucleotide, approx. 48 hours; RTS36584; normalized to RIBOGREEN; Yap1 mRNA relative to untreated control cells

Row | Substance | YAP1 (% UTC)
17 | 958585 (k[5mC]*kT*k[5mC]*dT*dA*dT*d[5mC]*dA*dA*dG*dG*dT*d[5mC]*k[5mC]*k[5mC]*k[5mC]; antisense) [Compound 958585] | 5
18 | 958460 (antisense kT*k[5mC]*kG*d[5mC]*dA*dT*d[5mC]*dT*dG*dT*dT*dG*d[5mC]*kT*kG*k[5mC]) [Compound 958460] | 52
19 | 958490 (kG*kT*kG*dA*d[5mC]*dA*dT*dG*dA*dA*dG*d[5mC]*dA*kT*k[5mC]*kT; antisense) [Compound 958490] | 5

Same assay, conditions: Table 26; Yap1 mRNA by 3-10-3 cEt gapmers targeting SEQ ID NO.: 1, and 2; percent of untreated control

Row | Substance | YAP1 (% UTC)
20 | 1076492 (kA*kA*kA*dA*dG*dA*dT*dA*d[5mC]*d[5mC]*d[5mC]*d[5mC]*d[5mC]*kA*kG*kT; antisense) [compound 1076492] | 47
21 | 1076108 (kA*kA*kA*d[5mC]*dA*dA*dA*dA*d[5mC]*d[5mC]*dG*dG*d[5mC]*kT*kT*kT; antisense) [compound 1076108] | 116
22 | 1075212 (k[5mC]*kA*kA*dT*dA*dA*dA*dG*dG*dG*dT*d[5mC]*d[5mC]*kT*kA*kA; antisense) [compound 1075212] | 76
23 | 1074252 (antisense kG*kG*kA*d[5mC]*dA*dG*d[5mC]*dA*dT*dG*dG*d[5mC]*d[5mC]*kT*kT*k[5mC]) [compound 1074252] | 50

Same assay, conditions: Table 27; Yap1 mRNA by 3-10-3 cEt gapmers targeting SEQ ID NO.: 1, and 2; percent of untreated control

Row | Substance | YAP1 (% UTC)
24 | 1075693 (k[5mC]*kA*kT*dT*dA*dA*dA*dA*dG*dT*dT*dG*dG*kG*kT*kT; antisense) [compound 1075693] | 36
25 | 1075725 (kA*kT*k[5mC]*d[5mC]*dT*dA*dT*d[5mC]*dT*dG*dT*d[5mC]*dA*kG*kT*kT; antisense) [compound 1075725] | 18
26 | 1074893 (antisense kG*k[5mC]*kT*dG*dA*dA*dG*dT*dT*dT*dA*dG*d[5mC]*k[5mC]*kT*kG) [compound 1074893] | 78
27 | 1075085 (antisense kT*kG*k[5mC]*dG*dG*dA*dA*dA*d[5mC]*dA*dA*dG*dT*kG*kT*kA) [compound 1075085] | 11

Same assay, conditions: Table 28; Yap1 mRNA as percent of untreated control; 3-10-3 cEt gapmers targeting SEQ ID NO.: 1, and 2

Row | Substance | YAP1 (% UTC)
28 | 1074734 (kT*kG*k[5mC]*d[5mC]*dA*dG*dG*dT*dA*dT*d[5mC]*dA*d[5mC]*kA*kG*kT; antisense) [compound 1074734] | 51
29 | 1075470 (antisense kG*k[5mC]*k[5mC]*dA*dA*dT*dA*dA*dG*dT*dT*dA*dT*k[5mC]*kA*kA) [compound 1075470] | 50
30 | 1074702 (antisense kG*kG*kT*dG*dT*dA*dA*dG*dA*d[5mC]*dA*dA*dG*kT*k[5mC]*kT) [compound 1074702] | 16

Same assay, conditions: Table 29; Yap1 mRNA as percent of untreated control; 3-10-3 cEt gapmers targeting SEQ ID NO.: 1, and 2

Row | Substance | YAP1 (% UTC)
31 | 1074191 (antisense kA*k[5mC]*kG*dG*d[5mC]*dG*dG*dG*d[5mC]*d[5mC]*d[5mC]*dT*dG*k[5mC]*k[5mC]*k[5mC]) [compound 1074191] | 80
32 | 1076559 (kA*kA*k[5mC]*dA*dA*dA*dT*dA*dT*dA*dG*dT*dT*kA*kG*k[5mC]; antisense) [compound 1076559] | 74
33 | 1076495 (kG*kA*kT*dT*dA*dG*dT*dG*dA*dA*dA*dA*dT*kT*k[5mC]*k[5mC]; antisense) [compound 1076495] | 30
34 | 1075631 (antisense k[5mC]*k[5mC]*k[5mC]*dT*dA*dT*dA*dA*d[5mC]*d[5mC]*dA*dA*dA*kT*kG*k[5mC]) [compound 1075631] | 104
35 | 1074735 (kG*kA*kT*d[5mC]*dA*dA*dA*dG*d[5mC]*dA*d[5mC]*dT*dG*kT*kG*k[5mC]; antisense) [compound 1074735] | 117
36 | 1076431 (k[5mC]*kA*k[5mC]*d[5mC]*dA*dA*dT*dA*dG*dA*dA*d[5mC]*dA*kT*kA*kT; antisense) [compound 1076431] | 31
37 | 1074895 (antisense kT*k[5mC]*k[5mC]*dT*dA*dT*dG*d[5mC]*dT*dG*dA*dA*dG*kT*kT*kT) [compound 1074895] | 60
38 | 1076079 (kA*kA*kG*d[5mC]*dA*dA*dT*dA*dT*dA*dT*dG*dG*k[5mC]*k[5mC]*kT; antisense) [compound 1076079] | 37

Same assay, conditions: Table 34; Yap1 mRNA as percent of untreated control; 3-10-3 cEt gapmers targeting SEQ ID NO: 1 and 2; single dose

Row | Substance | YAP1 (% UTC)
39 | 1075700 (kG*k[5mC]*k[5mC]*dA*dA*dA*dT*dA*dA*dG*dA*dG*dG*kT*kA*kG; antisense) [compound 1075700] | 22
40 | 1076372 (antisense k[5mC]*kA*kA*dT*dA*dA*dG*dA*dA*d[5mC]*dG*dA*dA*k[5mC]*k[5mC]*kT) [compound 1076372] | 76
41 | 1075028 (antisense kA*kA*kA*dA*dA*dT*d[5mC]*dA*dA*dG*d[5mC]*d[5mC]*d[5mC]*kT*k[5mC]*kG) [compound 1075028] | 103
42 | 1074164 (k[5mC]*k[5mC]*kA*dG*dG*d[5mC]*dG*dA*dG*d[5mC]*dG*dA*dG*kG*kG*k[5mC]; antisense) [compound 1074164] | 135
43 | 1074932 (antisense kG*kG*kA*dG*dA*d[5mC]*dT*dA*dT*dA*d[5mC]*dA*dA*k[5mC]*kA*kG) [compound 1074932] | 88

Same assay, conditions: Table 35; Yap1 mRNA as percent of untreated control; 3-10-3 cEt gapmers targeting SEQ ID NO: 1 and 2; single dose

Row | Substance | YAP1 (% UTC)
44 | 1074517 (kA*kA*kT*dG*d[5mC]*dA*dT*dA*d[5mC]*dA*dA*dA*dG*k[5mC]*kG*k[5mC]; antisense) [compound 1074517] | 55
45 | 1075669 (antisense kA*kA*kA*dT*dT*dA*dT*dT*dG*dG*dT*dG*dA*k[5mC]*kA*k[5mC]) [compound 1075669] | 70
46 | 1074901 (antisense kT*kA*kT*dT*dA*dA*d[5mC]*dT*dT*dT*dT*dG*dG*kG*k[5mC]*kA) [compound 1074901] | 61
47 | 1075253 (kG*kT*kT*dA*dA*dT*dT*dA*d[5mC]*dG*dA*dT*dT*kA*kG*kA; antisense) [compound 1075253] | 20
